According to ChEMBL document CHEMBL1201862, “PubChem BioAssay data set” (2004):
The source made the active and inactive calls.

Columns and labels:
[1] = target: DNA topoisomerase (Yersinia pestis, UniProt A0A2S9PM60); assay: Yersinia topoisomerase I cleavage product accumulation – biochemical, cherry-pick, dose response (AID 588525)
[2] = luciferase reporter signal suppression in cells – H4 neuroglioma cells, luminescence, dose response (AID 1990); format: functional, cell-based
[3] = alpha-synuclein stem-loop luciferase translation blockers – H4 neuroglioma cells, luminescence, confirmation (AID 1988); format: functional, cell-based
[4] = Luminescence Cell-Based Dose Response HTS to Identify Inhibitors of 5'UTR Stem-Loop Driven Prion Protein mRNA Translation in H4 Neuroglioblastoma Cells. [Related pubchem assays: 1827 (Project Summary), 1813 (Primary HTS)]; format: functional
[5] = Trypanosoma cruzi growth suppression in host cells – NIH3T3 host cells, beta-gal luminescence, confirmation (AID 2044); format: functional, cell-based;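 further: intracellular parasites grown in NIH/3T3 mouse fibroblasts as host cells; luminescent beta-galactosidase reporter signal from transgenic T. cruzi replicating inside host cells; inhibitors lower the luminescence signal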
[6] = NIH3T3 cell viability loss – ATP luminescence, mouse fibroblasts, counter-screen, dose response (AID 2010); format: functional, cell-based;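 further: cells exposed to compound for about 90 hours before reading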
[7] = viability of uninfected HEp-2 cells – cell-based, HTS, cytotoxicity control for RSV inhibitor project, dose response (AID 2410); format: functional; conditions: human respiratory syncytial virus
[8] = target: Beta-lactamase (Pseudomonas aeruginosa, UniProt Q79MP6);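 further: biochemical dose-response test of metallo-beta-lactamase enzyme inhibition, read out by epi-absorbance; purified recombinant IMP-1 metallo-beta-lactamase with nitrocefin as substrate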
[9] = target: Beta-lactamase (Salmonella choleraesuis (strain SC-B67), UniProt Q5J463)
[10] = target: T1, Insulin-degrading enzyme (Homo sapiens, UniProt P14735); assay: cellular IDE activation of Abeta substrate cleavage – fluorescence polarization, HEK cells, dose response (AID 588439); format: functional, cell-based
[11] = target: ORF 73 (Human herpesvirus 8, UniProt O40947); assay: KSHV LANA DNA-binding disruption – biochemical, fluorescence polarization, cherry-picked samples, dose response (AID 504725); parameters: species or system Human gammaherpesvirus 8;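 further: fluorescence polarization of a labeled DNA duplex reporting LANA DNA binding; potency is for inhibitors that block LANA binding to the DNA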
[12] = test system: HEK293; assay: optical interference in Abeta FP readout, dose response, artefact control for IDE activator project, biochemical, fluorescence polarization (AID 588442); format: functional, cell-based; conditions: Homo sapiens
[13] = target: T1, Insulin-degrading enzyme; assay: recombinant IDE activation, cell-free – biochemical, fluorescence polarization, counter-screen for IDE activator project, dose response (AID 588681)
[14] = target: Keap1/Nrf2 (Homo sapiens, UniProt Q14145); assay: disruptors of Keap1 binding to Nrf2 peptide – biochemical, fluorescence polarization, cherry-picked samples, dose response (AID 588683)
[15] = test system: HEK293; assay: membrane integrity loss in HEK cells – cell-based, fluorescence, cytotoxicity control for IDE activator project, dose response (AID 588440); format: functional; conditions: Homo sapiens;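 further: cytotoxicity by LDH release measuring loss of membrane integrity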
[16] = target: Voltage-gated inwardly rectifying potassium channel KCNH2 (Homo sapiens, UniProt Q12809); conditions: Potency;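 further: confirmatory quantitative high-throughput screen measuring inhibition of hERG channel activity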
[17] = target: Hexokinase-1 (Homo sapiens, UniProt P19367); assay: hexokinase 1 activity inhibitors, potency – biochemical, set 2, resazurin fluorescence coupled readout, selectivity assay for HKDC1 inhibitor project, SAR follow-up (AID 588356); format: functional
[18] = target: T2, Hexokinase HKDC1 (Homo sapiens, UniProt Q2TB90); assay: analog inhibition of human HKDC1 activity – biochemical, set 2, SAR follow-up (AID 588355); format: functional
T2 sequence (Q2TB90 whole entry): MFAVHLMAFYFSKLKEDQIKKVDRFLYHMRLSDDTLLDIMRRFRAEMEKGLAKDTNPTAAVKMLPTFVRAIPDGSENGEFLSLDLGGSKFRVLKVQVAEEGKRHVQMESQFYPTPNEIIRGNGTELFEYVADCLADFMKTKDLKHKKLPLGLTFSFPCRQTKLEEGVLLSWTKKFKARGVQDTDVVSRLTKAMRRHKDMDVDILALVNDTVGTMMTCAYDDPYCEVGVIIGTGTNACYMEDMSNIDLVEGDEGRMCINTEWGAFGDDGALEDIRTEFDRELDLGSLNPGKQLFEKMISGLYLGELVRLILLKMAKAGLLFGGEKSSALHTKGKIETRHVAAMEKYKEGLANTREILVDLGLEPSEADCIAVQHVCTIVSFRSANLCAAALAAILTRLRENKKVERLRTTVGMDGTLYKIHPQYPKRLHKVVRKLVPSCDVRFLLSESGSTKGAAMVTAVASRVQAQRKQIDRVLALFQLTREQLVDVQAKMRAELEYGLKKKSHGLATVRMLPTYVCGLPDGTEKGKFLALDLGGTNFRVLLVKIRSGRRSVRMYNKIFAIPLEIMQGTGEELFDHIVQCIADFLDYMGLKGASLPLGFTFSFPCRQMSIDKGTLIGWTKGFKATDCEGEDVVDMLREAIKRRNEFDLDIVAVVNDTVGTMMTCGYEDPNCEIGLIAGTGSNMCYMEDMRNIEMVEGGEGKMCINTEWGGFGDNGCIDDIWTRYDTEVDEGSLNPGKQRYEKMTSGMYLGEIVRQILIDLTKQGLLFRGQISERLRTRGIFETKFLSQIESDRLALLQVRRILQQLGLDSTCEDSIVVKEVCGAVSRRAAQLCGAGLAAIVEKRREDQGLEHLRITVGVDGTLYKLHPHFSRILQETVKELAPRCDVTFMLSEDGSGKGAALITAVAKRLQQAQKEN

[19] = target: T3, Protein RecA (Mycobacterium tuberculosis, UniProt P9WHJ3); assay: Fluorescence Cell-Free Homogeneous Dose Retest to Identify Inhibitors of RecA-Intein Splicing Activity. [Related pubchem assays (depositor defined):AID2097, AID2223, AID489010, AID492950]; format: functional
T3 sequence (P9WHJ3 whole entry): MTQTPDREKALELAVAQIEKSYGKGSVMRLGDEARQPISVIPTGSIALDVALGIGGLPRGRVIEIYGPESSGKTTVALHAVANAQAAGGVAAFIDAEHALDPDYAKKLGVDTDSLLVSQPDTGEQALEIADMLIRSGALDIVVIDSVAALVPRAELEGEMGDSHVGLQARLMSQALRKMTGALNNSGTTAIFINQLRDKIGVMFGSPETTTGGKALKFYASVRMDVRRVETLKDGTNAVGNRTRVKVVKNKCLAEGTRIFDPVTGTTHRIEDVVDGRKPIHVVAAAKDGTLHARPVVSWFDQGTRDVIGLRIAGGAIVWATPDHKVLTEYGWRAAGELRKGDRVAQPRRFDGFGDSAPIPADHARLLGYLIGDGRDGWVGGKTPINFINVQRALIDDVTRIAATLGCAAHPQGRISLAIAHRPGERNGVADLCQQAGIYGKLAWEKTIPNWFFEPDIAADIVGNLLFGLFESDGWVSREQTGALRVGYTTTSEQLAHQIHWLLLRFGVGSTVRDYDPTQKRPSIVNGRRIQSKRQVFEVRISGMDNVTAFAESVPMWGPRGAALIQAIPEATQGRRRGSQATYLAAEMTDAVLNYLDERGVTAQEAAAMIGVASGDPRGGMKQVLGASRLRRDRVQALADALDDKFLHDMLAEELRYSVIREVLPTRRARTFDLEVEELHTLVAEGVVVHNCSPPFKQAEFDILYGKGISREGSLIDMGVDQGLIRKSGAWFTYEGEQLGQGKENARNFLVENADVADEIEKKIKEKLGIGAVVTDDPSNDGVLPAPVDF

[20] = target: T4, Replicative DNA helicase DnaB (Mycobacterium tuberculosis, UniProt P9WMR3); assay: DnaB intein splicing inhibitors, dose response, biochemical, cell-free fluorescence (AID 449749); format: functional
T4 sequence (P9WMR3 whole entry): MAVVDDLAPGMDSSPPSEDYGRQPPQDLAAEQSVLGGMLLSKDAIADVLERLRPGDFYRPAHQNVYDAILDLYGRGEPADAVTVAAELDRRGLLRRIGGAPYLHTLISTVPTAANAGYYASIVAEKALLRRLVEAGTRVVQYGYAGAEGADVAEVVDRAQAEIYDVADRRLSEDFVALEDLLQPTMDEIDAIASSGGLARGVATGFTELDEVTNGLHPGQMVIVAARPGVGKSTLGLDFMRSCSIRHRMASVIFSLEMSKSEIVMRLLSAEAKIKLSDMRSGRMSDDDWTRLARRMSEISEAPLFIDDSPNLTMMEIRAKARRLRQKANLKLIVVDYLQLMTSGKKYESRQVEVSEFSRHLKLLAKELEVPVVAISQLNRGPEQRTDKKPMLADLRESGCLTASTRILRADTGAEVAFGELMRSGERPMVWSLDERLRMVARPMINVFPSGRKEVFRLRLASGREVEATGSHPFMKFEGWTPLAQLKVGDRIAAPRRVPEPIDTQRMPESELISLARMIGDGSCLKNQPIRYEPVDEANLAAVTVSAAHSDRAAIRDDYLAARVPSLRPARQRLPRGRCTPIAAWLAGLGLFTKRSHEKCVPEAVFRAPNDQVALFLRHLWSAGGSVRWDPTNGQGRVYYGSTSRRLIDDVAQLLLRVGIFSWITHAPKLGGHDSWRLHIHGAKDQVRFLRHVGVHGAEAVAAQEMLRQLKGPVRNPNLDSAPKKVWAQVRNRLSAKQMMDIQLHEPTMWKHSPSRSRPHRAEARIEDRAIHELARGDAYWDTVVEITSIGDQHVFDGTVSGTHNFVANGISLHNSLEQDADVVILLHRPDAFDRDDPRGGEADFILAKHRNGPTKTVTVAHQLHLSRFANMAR

[21] = target: T2, Hexokinase HKDC1; assay: inhibition of HKDC1 glucose phosphorylation – biochemical, W721R variant, dose response (AID 504729); format: functional
[22] = test system: INS1; assay: INS-1E mitochondrial potential loss inhibitors – cell-based, JC-1 fluorescence, dry powder, set 2, dose response (AID 488867); format: functional; conditions: Rattus norvegicus
[23] = test system: INS1; assay: INS-1E mitochondrial potential rescue under cytokines – cell-based, JC-1 fluorescence ratio, dry powder, dose response (AID 488931); format: functional; conditions: Rattus norvegicus
[24] = test system: INS1; assay: beta-cell survival under cytokine stress – INS-1E, ATP luminescence, dry powder, dose response (AID 488844); format: functional, cell-based; conditions: Rattus norvegicus
[25] = target: Phospholipase D1 (Homo sapiens, UniProt Q13393); assay: cellular phospholipase D1 inhibition IC50 – cell-based, dose response (AID 602151); format: functional;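 further: cellular PLD1 assay in Calu-1 cells stimulated with PMA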
[26] = target: Phospholipase D2 (Homo sapiens, UniProt O14939); assay: cellular phospholipase D2 inhibition IC50 – cell-based, dose response (AID 602147); format: functional;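 further: cellular assay in HEK293 cells overexpressing GFP-tagged PLD2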

T1 sequence (P14735 whole entry): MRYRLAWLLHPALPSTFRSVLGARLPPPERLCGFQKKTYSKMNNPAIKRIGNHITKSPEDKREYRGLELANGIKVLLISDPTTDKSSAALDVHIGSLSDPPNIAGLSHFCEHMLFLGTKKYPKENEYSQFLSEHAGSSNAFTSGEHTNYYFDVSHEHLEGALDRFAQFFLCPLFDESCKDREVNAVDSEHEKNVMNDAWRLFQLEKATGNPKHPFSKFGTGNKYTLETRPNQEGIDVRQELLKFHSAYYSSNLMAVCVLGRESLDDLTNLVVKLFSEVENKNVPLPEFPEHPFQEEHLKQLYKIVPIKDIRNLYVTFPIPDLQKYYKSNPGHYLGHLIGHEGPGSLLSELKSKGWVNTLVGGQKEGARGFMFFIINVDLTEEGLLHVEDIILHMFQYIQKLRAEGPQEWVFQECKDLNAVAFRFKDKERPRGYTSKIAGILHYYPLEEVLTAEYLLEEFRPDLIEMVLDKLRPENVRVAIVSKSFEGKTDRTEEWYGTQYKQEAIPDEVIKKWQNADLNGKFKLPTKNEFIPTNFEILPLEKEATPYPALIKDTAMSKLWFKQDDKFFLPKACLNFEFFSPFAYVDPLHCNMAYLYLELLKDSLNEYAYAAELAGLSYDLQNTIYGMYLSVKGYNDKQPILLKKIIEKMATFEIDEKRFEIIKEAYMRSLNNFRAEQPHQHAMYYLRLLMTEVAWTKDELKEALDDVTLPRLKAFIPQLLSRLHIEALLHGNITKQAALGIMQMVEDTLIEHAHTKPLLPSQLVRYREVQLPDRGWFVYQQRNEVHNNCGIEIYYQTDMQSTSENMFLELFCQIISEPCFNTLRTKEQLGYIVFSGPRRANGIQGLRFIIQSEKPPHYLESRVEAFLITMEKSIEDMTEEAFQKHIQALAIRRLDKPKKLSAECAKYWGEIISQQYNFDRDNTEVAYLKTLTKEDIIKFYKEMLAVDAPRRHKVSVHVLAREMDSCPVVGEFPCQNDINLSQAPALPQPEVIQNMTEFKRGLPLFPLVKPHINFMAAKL
Chain of DNA topoisomerase (A0A2S9PM60 whole entry): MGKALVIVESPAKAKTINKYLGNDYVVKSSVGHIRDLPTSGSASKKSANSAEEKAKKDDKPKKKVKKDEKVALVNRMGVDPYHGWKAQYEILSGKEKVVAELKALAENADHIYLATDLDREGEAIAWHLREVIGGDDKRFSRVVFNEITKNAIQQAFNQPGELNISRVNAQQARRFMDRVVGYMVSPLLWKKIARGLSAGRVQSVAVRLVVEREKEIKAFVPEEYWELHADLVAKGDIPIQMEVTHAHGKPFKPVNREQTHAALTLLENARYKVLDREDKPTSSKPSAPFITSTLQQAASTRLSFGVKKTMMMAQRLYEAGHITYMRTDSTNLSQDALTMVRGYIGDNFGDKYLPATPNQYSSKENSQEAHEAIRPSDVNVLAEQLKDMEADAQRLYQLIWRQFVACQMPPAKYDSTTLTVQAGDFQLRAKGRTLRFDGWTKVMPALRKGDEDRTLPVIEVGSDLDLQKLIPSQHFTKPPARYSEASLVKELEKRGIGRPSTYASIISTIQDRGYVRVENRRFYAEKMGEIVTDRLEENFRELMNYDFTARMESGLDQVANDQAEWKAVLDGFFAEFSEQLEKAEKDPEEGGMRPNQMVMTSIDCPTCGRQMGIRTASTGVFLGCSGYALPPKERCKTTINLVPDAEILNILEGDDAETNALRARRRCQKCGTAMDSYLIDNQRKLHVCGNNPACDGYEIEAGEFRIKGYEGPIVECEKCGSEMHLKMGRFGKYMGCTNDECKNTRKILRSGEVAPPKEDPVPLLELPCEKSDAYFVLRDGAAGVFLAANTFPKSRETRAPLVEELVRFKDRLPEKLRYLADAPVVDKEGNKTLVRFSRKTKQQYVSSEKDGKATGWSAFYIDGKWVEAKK
Chain of Beta-lactamase (Salmonella choleraesuis (strain SC-B67), UniProt Q5J463) (Q5J463 whole entry): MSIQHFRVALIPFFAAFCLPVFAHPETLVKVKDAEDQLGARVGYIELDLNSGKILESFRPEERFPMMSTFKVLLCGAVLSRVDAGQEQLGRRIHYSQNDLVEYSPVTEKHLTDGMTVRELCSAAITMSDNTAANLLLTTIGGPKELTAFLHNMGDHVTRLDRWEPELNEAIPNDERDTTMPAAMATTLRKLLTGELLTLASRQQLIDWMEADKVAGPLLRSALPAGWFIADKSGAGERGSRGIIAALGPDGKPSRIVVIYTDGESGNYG
Chain of Keap1/Nrf2 (Q16236 whole entry): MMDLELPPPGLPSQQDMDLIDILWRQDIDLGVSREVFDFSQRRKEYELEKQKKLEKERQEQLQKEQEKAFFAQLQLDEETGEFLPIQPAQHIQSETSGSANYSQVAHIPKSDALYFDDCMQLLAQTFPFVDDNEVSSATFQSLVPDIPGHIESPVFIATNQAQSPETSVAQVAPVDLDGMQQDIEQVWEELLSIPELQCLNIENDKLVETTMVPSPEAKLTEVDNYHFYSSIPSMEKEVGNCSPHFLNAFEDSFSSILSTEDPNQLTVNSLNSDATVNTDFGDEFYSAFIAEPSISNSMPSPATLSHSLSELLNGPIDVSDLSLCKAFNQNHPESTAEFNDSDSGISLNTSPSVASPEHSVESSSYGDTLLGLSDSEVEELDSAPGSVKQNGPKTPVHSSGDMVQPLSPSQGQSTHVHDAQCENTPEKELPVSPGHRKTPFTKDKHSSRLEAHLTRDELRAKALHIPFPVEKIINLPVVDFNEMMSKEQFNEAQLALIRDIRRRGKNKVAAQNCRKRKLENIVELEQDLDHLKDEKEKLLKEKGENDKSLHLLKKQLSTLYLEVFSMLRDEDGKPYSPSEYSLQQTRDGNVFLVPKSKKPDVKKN
Chain of Keap1/Nrf2 (Q14145 whole entry): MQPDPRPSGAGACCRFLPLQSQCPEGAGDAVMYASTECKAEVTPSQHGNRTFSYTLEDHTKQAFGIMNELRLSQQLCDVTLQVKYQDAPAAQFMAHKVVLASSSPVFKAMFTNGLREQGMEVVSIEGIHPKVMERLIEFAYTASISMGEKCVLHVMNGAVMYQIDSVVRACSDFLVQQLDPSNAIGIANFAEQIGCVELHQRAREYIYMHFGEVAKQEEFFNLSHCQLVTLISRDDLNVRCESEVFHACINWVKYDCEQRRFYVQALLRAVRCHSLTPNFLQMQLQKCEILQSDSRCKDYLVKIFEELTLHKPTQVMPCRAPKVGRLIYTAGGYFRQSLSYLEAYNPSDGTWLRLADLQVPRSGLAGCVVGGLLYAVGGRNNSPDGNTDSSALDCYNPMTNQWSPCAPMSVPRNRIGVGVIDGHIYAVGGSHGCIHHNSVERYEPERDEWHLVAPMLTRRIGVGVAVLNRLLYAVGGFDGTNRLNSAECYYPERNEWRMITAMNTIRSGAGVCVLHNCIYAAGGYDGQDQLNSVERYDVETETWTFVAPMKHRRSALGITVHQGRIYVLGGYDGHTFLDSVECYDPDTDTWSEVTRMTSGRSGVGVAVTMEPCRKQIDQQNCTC
Chain of Voltage-gated inwardly rectifying potassium channel KCNH2 (Q12809 whole entry): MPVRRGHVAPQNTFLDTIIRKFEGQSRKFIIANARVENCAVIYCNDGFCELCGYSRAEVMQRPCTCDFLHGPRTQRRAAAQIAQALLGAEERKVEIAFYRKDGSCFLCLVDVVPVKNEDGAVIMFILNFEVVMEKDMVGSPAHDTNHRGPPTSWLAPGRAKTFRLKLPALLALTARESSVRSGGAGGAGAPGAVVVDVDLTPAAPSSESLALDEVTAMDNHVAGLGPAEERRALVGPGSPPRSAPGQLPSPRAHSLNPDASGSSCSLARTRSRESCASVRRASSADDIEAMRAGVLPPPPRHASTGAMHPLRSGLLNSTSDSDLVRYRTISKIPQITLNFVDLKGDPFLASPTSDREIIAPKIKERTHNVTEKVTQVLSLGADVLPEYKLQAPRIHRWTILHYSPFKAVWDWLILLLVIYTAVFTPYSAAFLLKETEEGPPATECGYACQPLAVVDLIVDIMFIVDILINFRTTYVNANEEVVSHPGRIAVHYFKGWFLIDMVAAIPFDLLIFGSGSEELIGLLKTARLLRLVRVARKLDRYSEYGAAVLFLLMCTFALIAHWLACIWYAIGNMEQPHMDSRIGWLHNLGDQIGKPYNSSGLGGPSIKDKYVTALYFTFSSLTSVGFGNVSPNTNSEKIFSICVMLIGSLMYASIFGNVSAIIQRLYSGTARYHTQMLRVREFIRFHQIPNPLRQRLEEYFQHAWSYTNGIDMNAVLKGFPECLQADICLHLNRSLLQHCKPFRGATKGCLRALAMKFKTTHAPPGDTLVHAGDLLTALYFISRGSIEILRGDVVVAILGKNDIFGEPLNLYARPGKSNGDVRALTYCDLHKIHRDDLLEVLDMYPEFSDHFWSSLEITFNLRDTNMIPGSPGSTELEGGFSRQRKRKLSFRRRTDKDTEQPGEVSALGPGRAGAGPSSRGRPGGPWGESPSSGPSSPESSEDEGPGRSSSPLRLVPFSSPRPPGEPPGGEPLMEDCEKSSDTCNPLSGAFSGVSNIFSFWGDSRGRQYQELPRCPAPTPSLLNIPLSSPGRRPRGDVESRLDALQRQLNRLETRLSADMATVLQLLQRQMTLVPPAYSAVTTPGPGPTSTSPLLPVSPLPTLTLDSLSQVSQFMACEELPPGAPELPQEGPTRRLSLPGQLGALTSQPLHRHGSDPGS
Chain of Beta-lactamase (Pseudomonas aeruginosa, UniProt Q79MP6) (Q79MP6 whole entry): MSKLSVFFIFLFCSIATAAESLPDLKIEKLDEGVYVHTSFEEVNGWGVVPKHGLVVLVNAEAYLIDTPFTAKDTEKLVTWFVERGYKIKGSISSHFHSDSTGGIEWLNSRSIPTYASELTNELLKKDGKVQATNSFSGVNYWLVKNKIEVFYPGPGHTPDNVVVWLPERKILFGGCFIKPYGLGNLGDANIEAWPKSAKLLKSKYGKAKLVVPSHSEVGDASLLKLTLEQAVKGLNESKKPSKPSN

## COc1ccc(-c2nc3c(c(=O)[nH]c(=O)n3Cc3ccccc3)n2Cc2ccccc2)cc1
[1]
  AC50: 7.41 µM (active)
[2]
  EC50: 26.7 µM (active)
[3]
  EC50: 17.7 µM (active)
[4]
  EC50: > 120 µM (not active)
[5]
  EC50: 0.826 µM (active)
[6]
  EC50: > 60 µM (inconclusive)
[7]
  CC50: 7.31 µM (active)

## CNc1ccc2c3c(cccc13)C(=O)N(C)C2=O
[8]
  IC50: 3.92 µM (active)
[9]
  IC50: 2.2 µM (active)
[10]
  EC50: > 54.8 µM (inactive)
[11]
  AC50: 0.588 µM (active)
[12]
  EC50: 6.57 µM (active)
[13]
  EC50: > 54.8 µM (inactive)
[14]
  AC50: 0.399 µM (active)
[15]
  IC50: > 89.3 µM (inactive)

## CCCCOc1cc(CC2CNC(=O)N2)ccc1OC (configuration not stated) [RO-201724]
[7]
  CC50: 23.8 µM (active)
[16]
  AC50: 3.55 µM (inconclusive)

## CC(=O)NC1C(=O)N(CCN2CCOCC2)c2ccc(C)cc21 (configuration not stated)
[17]
  IC50: > 80 µM (inactive)
[18]
  IC50: 4.45 µM (active)
[19]
  EC50: 8.53 µM (active)
[20]
  AC50: 22.1 µM (active)
[21]
  IC50: 4.71 µM (active)

## COc1ccc(S(=O)(=O)N(C)C[C@@H]2Oc3c(NC(=O)Nc4ccccc4)cccc3C(=O)N([C@@H](C)CO)C[C@H]2C)cc1
[22]
  AC50: 58.9 µM (active)
[23]
  AC50: 34.8 µM (active)
[24]
  AC50: > 260 µM (inactive)

## O=C(NCCN1CCC2(CC1)C(=O)NCN2c1ccccc1)c1ncc(F)cc1F
[25]
  IC50: 20 µM (active)
[26]
  IC50: 5.4 µM (active)
